Patent publication US11926604B2, “Myelination stimulator compounds, and methods of treatment” (priority 2018, dated 2024)

Columns and labels:
[1] = system: mouse brain slices; assay: Myelination in brain slices (MBP, O1 immunostaining); assay type: cell-based; settings: brain slices incubated 5 days in culture, MBP labeling
Method: FIG. 2. depicts the effect of compounds on myelination stimulation. FIG. 2. A. Myelin basic protein labeling (green) of brain slices incubated with compounds for 5 days in culture. *, p<0.05 vs vehicle. ANOVA. Data shown are representative at least 3 slices per treatment group per study, in at least 3 separate studies. (B) Vehicle, (C) K-261-0298. Note increased labeling.
Before undertaking in vivo testing, we assessed the ability of the lead compounds to promote OL development and myelination using mouse brain slices, as reported^62,63. Each compound and concentration was tested in triplicate, in at least three separate studies. Slices were collected at 1, 5, 9, or 13 days in vitro, fixed in 4% paraformaldehyde, and used for immunohistochemical staining.

[2] = system: mice; assay: Single-dose dose-range and toxicity study in mice; assay type: in vivo
Method: (§1) Dose-range and toxicity studies in mice. In consultation with UF veterinary staff and the IACUC committee, toxicity studies were performed. […] Compounds were dissolved in 100% DMSO and diluted with 0.9% NaCl before injecting. The IP route (100-500 ul) was used to treat 8-10 week old female adults. We used females because in some studies they are more sensitive to toxins. Experiments were performed with the 2 compounds that had the largest effect on myelination in the brain slice cultures, including K261-0298 and K261-0310. Mice were treated with a single dose.

[3] = system: mice; assay: Multiday toxicity study, 10 days; assay type: in vivo, mouse; settings: 100 mg/kg for 10 days
[4] = system: mouse pups; assay: Ten-day treatment of mouse pups from P2, safety and pulmonary hypertension; assay type: in vivo
Method: In addition, we also treated mouse pups starting on day P2 for ten days with 100 mg/kg/day K261-0298 or vehicle. […] We also evaluated for possible pulmonary hypertension.

[5] = Toxicokinetic sample collection, HPLC compound levels; assay type: in vivo, mouse; settings: single i.p. injection of 100 mg/kg, mice
Method: Toxicokinetic Sample Collection: After the above studies, compound kinetics were examined. Male and female mice at approximately 60 days of age were used (n=8 mice per sex). […] Samples were collected prior to dose and at 30 minutes, 2, 4, 8 and 24 hours after. Compound levels were determined by High Pressure Liquid Chromatography (HPLC) at UF.

[6] = system: C57BL/6 mice; assay: Myelination in newborn mice in normoxia; assay type: in vivo, mouse
Source text: FIG. 3. depicts results of studies of myelination in newborn mice in normoxia. FIG. 3. Myelin basic protein (MBP), O4 and O1 labeling of coronal forebrain at level of corpus callosum (cc) of newborn mice treated with vehicle or drug (K261-298) from P2 to P12 in room air. Data shown are representative of at least 5 pups per treatment group. cc, corpus callosum. Scale bar=100 um.
After adult studies, pups were studied at developmental stages equivalent to preterm infants to assess effects on myelination, as reported by us^54. C57BL/6 mice were reared in room air from P2 to P12, and treated daily with the compound or vehicle. […] K261-0298 (100 mg/kg) was given by injection, as above.

[7] = system: hypoxia-exposed mouse; assay: Chronic sublethal hypoxia model of PWMI, ventriculomegaly; assay type: in vivo; set-up: ventricle size: unit not given here
Source text: FIG. 4. Depicts results of studies of myelination in an animal model of white matter injury. […] Dark-field, hemi-coronal sections at the same brain levels shown. Data shown are representative of 4 pups per treatment group. Arrow depict lateral ventricles. ac, anterior commisure. Note smaller ventricle size in the drug-treated pup. Scale bar=500 um.
We have initiated preclinical testing using the chronic sublethal hypoxia model of PWMI. Mice were reared under hypoxic or normoxic conditions from P2 to P12, as reported 64. At P2, litters were placed in a Plexiglas chamber in which ambient O2 levels are maintained at 10.0±0.3% O2. Normoxic animals were exposed to room air. To date we tested K261-0298 at 100 mg/kg, and mice were treated once per day from P2 to P12. At the end of the treatment period mice were examined for ventriculomegaly, as reported^64,65. […] Compared with normoxic controls^64,66, ventricle sizes in the drug-treated hypoxia animals were similar.

[8] = assay type: physicochemical
Method: as §1

[9] = system: C57BL/6 mice; settings: cited from earlier work
[10] = diazoxide, basis for dose choice; cited from earlier work
[11] = system: model of PWMI; settings: neonatal therapy; cited from earlier work
[12] = pups from P2, ten days, 100 mg/kg/day
[13] = 100 mg/kg daily P2 to P12, room air, n=6

## CCOCCCNC(=O)CCC1=Nc2ccccc2S(=O)(=O)N1 [Compound K261-0298, 3-(1,1-dioxido-2H-benzo[e][1,2,4]thiadiazin-3-yl)-N-(3-ethoxypropyl)propanamide]
[1]
  myelination in vitro: stimulates myelination in vitro
[2]; IP, 8-10 week old female mice
  tolerated single dose: up to 400 mg/kg
[3]
  adverse effects on animal behavior or weight: no adverse effects on animal behavior or weight loss
  histopathological analysis of major organs: did not reveal evidence of damage in any major organs
[3]; 5 treated mice
  gross necropsy: no gross malformations were observed
[4]; [12]
  behavior or weight gain versus vehicle: without any differences in behavior or weight gain
  survival: all survived to the end of treatment
[4]; ten days of treatment in pups, juveniles, adults
  pulmonary hypertension: does not appear that this compound induces pulmonary hypertension
[5]; both sexes, mouse, in vivo, ip, read-out: circulating half-life (converted)
  half-life: 2.2 h
[5]
  peak drug levels: 21.5 ± 2.3 µM
[6]; [13]
  decrease in O4 labeling vs. vehicle: 44+/−4%
  increase in MBP labeling vs. vehicle: 27+/−4%
  increase in O1 labeling vs. vehicle: 26+/−5%
[6]; P2 to P12 in room air, p<0.02
  O1 labeling (FIG. 3): increase in O1 labeling
  O4 expression (FIG. 3): reduction in O4 expression
[6]; inferred from changes in CNS myelination
  bioavailability to the brain / blood-brain-barrier penetration: suggests that there is bioavailability of the compound to the brain
[7]; drug-treated hypoxia animals
  ventricle sizes compared with normoxic controls: similar
[7]; hypoxia, 100 mg/kg once per day P2 to P12, n=4
  ventricle size: 0.0054+/−0.00013
[7]; hypoxia, 100 mg/kg once per day P2 to P12, p<0.03, 100 mg/kg
  ventriculomegaly vs. vehicle: marked reduction in ventriculomegaly
[8]
  solubility behaviour in dosing solution: more favorable solubility properties

## CC1=NS(=O)(=O)c2cc(Cl)ccc2N1 [diazoxide]
[9]
  myelination in room air (earlier diazoxide studies): increased myelination
[10]
  LD50: 265 to 392 mg/kg
[11]
  myelination: markedly improves myelination
  neurocognitive function: improves neurocognitive function
  ventriculomegaly: reduces ventriculomegaly

## CC(=O)c1ccc(N2CCN(C(=O)CCC3=Nc4ccccc4S(=O)(=O)N3)CC2)cc1 [Compound K261-0310, 1-(4-(4-acetylphenyl)piperazin-1-yl)-3-(1,1-dioxido-2H-benzo[e][1,2,4]thiadiazin-3-yl)propan-1-one]
[2]; mouse, in vivo, ip, 50 mg/kg
  adverse effects at behavioral or gross necropsy levels: no adverse effects observed
[8]
  solubility behaviour in dosing solution: precipitated out of solution at higher concentrations
